Paper PMC12027946, “Ionic and Non-Ionic Counterparts Based on Bis(Uracilyl)Alkane Moiety with Highest Selectivity Towards Acetylcholinesterase for Protection Against Organophosphate Poisoning and Treating Alzheimer’s Disease” (International Journal of Molecular Sciences, 2025)
Values joined by “and” are separate entries in the source; they are usually repeats but may differ in a detail not shown here. Equal entries are not always repeated. Where two headings read alike, the source gives them in different places.

Legend:
[1] = target: T1, human AChE (Homo sapiens, UniProt P22303); test: In vitro cholinesterase inhibition (Ellman), AChE; format: biochemical
T1 construct: purchased Sigma-Aldrich
Description: (§1) Inhibitory activities of the tested compounds against AChE and BChE were measured according to Ellman et al.. Enzyme-catalysed hydrolysis of ATCHh was carried out at 25 °C in 0.1 M phosphate buffer (pH 8.0) containing 0.25 U AChE, 1 mM ATCHh as substrates, and 0.1 mM of DTNB. In experiments with BuChE, 0.1 M phosphate buffer (pH 7.0) and BuTChh as a substrate were used. The tested compounds were pre-incubated with the enzyme for two minutes prior to the addition of the substrate and the subsequent recording of hydrolysis kinetics. […] A sample without an inhibitor was used as a control (100% cholinesterase activity). A sample without a substrate was used as a blank. Experiments were performed in triplicate.

[2] = target: T2, BChE from human plasma (Homo sapiens, UniProt P06276); test: In vitro cholinesterase inhibition (Ellman), BuChE; format: biochemical
T2 construct: butyrylcholiesterase from human plasma; purchased Sigma-Aldrich; host or cells: human plasma
Description: as §1

[3] = target: T1, human AChE; test: Inhibition constants (Dixon and Cornish–Bowden plots), AChE; format: biochemical
Description: (§2) Experiments were performed using four different concentrations of ATCh as a substrate for AChE, and with BuTCh as a substrate for BuChE. According to the analysis of Dixon and Cornish–Bowden plots for bisuracil 2b, AChE and BuChE inhibition is of a mixed type characterised both by competitive inhibition (Kci) and uncompetitive inhibition (Kui) components. For AChE, Kci was determined to be 55.7 ± 8.1 pM while Kui = 156 ± 18 pM (Figure 3A,B), and Kci = 0.13 ± 0.02 mM while Kui = 0.7 ± 0.06 mM for BuChE (Figure 3C,D). Inhibition of AChE and BuChE by bisuracil 3c was of a mixed type. For the AChE constant, Kci was 0.7 ± 0.04 nM while Kui 4.45 ± 1.76 nM (Figure 4A,B); for the BuChE constant, Kci = 0.04 ± 0.007 мM while Kui = 0.68 ± 0.08 мM (Figure 4C,D).
(§3) A UV-1800 Shimadzu (Shimadzu Co., Kyoto, Japan) spectrophotometer was utilised to conduct the measurements. The final enzyme concentration in the assays was in the picomolar range. In order to ascertain the levels of spontaneous hydrolysis of the enzyme and substrate in the absence of an inhibitor, controls were performed for each substrate concentration. The change in absorption was then recorded over a period of three minutes. The inhibition constants were determined from a Dixon plot and Cornish–Bowden transformation.

[4] = target: T3, human BuChE (Homo sapiens, UniProt P06276); test: Inhibition constants (Dixon and Cornish–Bowden plots), BuChE; format: biochemical
T3 construct: butyrylcholiesterase from human plasma; purchased Sigma-Aldrich; host or cells: human plasma
Description: as §2, §3

[5] = Acute toxicity, single i.p. injection; settings: CD-1, mouse, in vivo, ip, mice
Description: Toxicological experiments were performed using a single i.p. injection of the tested compounds in CD-1 mice weighing 20–25 g. Stock solutions of the tested compounds were diluted in ethanol or water. The final ethanol dose was 100 mg/kg. Nine different doses of the tested compounds were used with 12 mice per dose. Animals were observed 7 days after injection, and symptoms of toxicity were recorded.

[6] = test system: mice poisoned with 2×LD50 of POX; test: Protection against POX toxicity (pre-treatment); format: in vivo; settings: for n/N (mice surviving 5 days after POX poisoning / total): atropine 15 mg/kg i.p. 1 min after POX
Description: The concept of using reversible AChE inhibition as a preventive strategy to enhance the efficacy of traditional antidotes in OP poisoning is a well-established principle. This study explores the potential of bisuracil 2b as a preventive agent to protect AChE from irreversible inhibition caused by paraoxon (POX), a model OP. […] Following POX administration, the standard antidote atropine was given at a dose of 15 mg/kg within one minute. […] Increasing the dose of bisuracil 2b reduced the protective effect in POX poisoned animals (Table 3).
We also estimated the relative risk of death (RRD) as a function of precocity (from min to hours) over a period of 10 h by Cox survival analysis. Statistical differences in the number of surviving animals between experimental groups were tested using the Cox–Mantel multisample logarithmic rank criterion. It was shown that, in mice exposed to 0.42 mg/kg of POX, RRD = 1 (Figure 5). However, in animals that received atropine within 1 min after poisoning, POX-induced mortality was lower (RRD = 0.5; Figure 5).
The tested compound was administered via i.p. before POX injection.

[7] = test system: mice; test: Rotarod test; format: in vivo; settings: 2b 0.01 mg/kg i.p.; control 173 ± 21 s, p = 0.125
Description: (§4) The ability of effective doses of bisuracil 2b (0.01 mg/kg) and bisuracil 3c (5 mg/kg) to induce incapacitation was evaluated. Locomotor activity, measured as the total distance travelled, and exploratory behaviour, assessed by the number of rearings (head inclinations) and head dips, were evaluated using the open-field test. Additionally, motor coordination was analysed using the rotarod test, where the ability of mice to stay on the rotating rod was recorded. The compounds were administered i.p. 30 min before testing, while the control group received an equivalent volume of the vehicle.
To analyse motor function, rotarod and open-field tests were carried out. Mice were randomly divided into 3 groups (n = 12): a control group of mice and groups of mice treated with tested compounds. Tests were conducted 1 h after compound exposure. To assess motor function, mice were first placed on a rotarod treadmill (Ugo Basile, Italy). Rotation speed was fixed at 15 rpm, and the time that each mouse remained on the rod was recorded as the score, with a maximum duration of 300 s per trial. Each mouse underwent 3 trials. […] To assess motor function, the distance travelled in centimetres in the arena was measured, using VideoMot2 software (Version 8.02 (131) 03-07-17 (TSE Systems, Bad Homburg, Germany).

[8] = test system: mice; test: Open-field test; format: in vivo; settings: 2b 0.01 mg/kg, 3c 5 mg/kg, i.p.
Description: as §4
To analyse motor function, rotarod and open-field tests were carried out. Mice were randomly divided into 3 groups (n = 12): a control group of mice and groups of mice treated with tested compounds. Tests were conducted 1 h after compound exposure. To assess motor function, mice were first placed on a rotarod treadmill (Ugo Basile, Italy). Rotation speed was fixed at 15 rpm, and the time that each mouse remained on the rod was recorded as the score, with a maximum duration of 300 s per trial. Each mouse underwent 3 trials. After recording the length of time that mice managed to remain on the rotarod (latency to fall), the average of three trials was used for further analysis. Following the rotarod test, motor function was studied in an open field apparatus (Open Science, Krasnogorsk, Russia), as described in [39]. The numbers of rearing and head dips were estimated as indexes of exploratory activity. To assess motor function, the distance travelled in centimetres in the arena was measured, using VideoMot2 software (Version 8.02 (131) 03-07-17 (TSE Systems, Bad Homburg, Germany).

T3 sequence (P06276 29-602): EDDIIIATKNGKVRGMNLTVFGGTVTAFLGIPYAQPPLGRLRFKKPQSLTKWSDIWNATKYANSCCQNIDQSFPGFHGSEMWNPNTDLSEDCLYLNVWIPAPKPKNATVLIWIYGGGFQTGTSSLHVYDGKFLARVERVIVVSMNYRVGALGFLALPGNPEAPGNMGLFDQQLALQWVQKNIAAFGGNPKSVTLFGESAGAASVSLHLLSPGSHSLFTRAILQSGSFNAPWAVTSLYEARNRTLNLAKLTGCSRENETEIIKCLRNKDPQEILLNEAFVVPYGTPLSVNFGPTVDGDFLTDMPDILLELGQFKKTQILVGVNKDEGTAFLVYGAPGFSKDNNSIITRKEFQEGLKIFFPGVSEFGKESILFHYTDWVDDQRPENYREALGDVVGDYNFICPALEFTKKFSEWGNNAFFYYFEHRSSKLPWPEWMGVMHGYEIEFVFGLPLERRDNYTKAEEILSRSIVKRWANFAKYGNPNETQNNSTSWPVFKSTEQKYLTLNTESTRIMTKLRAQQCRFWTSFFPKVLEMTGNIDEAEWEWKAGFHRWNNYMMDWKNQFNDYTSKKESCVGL
T1 sequence (P22303 32-614): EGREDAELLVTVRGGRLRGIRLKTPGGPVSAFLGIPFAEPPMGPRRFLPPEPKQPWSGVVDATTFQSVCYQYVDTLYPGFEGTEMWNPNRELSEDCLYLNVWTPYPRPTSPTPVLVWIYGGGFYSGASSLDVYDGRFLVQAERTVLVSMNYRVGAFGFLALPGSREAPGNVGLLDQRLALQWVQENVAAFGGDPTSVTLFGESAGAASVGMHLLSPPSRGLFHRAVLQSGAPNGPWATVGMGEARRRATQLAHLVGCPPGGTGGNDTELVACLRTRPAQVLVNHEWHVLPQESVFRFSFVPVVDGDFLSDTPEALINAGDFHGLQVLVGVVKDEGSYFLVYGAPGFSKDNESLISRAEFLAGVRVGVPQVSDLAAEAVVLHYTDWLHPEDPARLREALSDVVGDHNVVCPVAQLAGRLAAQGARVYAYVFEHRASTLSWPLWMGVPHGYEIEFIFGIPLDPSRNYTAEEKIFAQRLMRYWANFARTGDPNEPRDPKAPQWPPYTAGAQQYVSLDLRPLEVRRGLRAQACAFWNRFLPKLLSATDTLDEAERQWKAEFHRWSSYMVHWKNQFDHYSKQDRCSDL
T2 sequence (P06276 29-602): as the sequence (P06276 29-602) above

## CC[N+](CC)(CCCCCn1c(=O)ccn(CCCCn2c(C)cc(=O)n(C)c2=O)c1=O)Cc1ccccc1C#N [2b, 1,4-{(3,6-Dimethyluracil-1-yl)-[3-(5-o-nitrilebenzyl(diethyl)ammonio)pentyl)-uracil-1-yl]}butane bromide]
[1]; AChE IC50, as printed in text and Figure 9
  IC50: 0.0649 nM
[1]; IC50 AChE, Table 1, recombinant human AChE, 25 °C, pH 8.0
  IC50: 0.06 ± 0.003 nM
[2]
  IC50: 219000 ± 50000 nM
[3]
  Ki: 0.0557 ± 0.0081 nM
[3]; ATCh as substrate
  Kui (uncompetitive inhibition constant), AChE: 156 ± 18 pM
[3]; Dixon and Cornish–Bowden plots
  type of AChE inhibition: mixed type
[4]
  Ki: 130000 ± 20000 nM
[4]; BuTCh as substrate
  Kui (uncompetitive inhibition constant), BuChE: 0.7 ± 0.06 mM
[4]; Dixon and Cornish–Bowden plots
  type of BuChE inhibition: mixed type
[5]; observed 7 days, read-out: LD50 (median lethal dose)
  LD50 at 7 days: 5.16 mg/kg
[5]; read-out: LD50 95% confidence limits
  LD50 at 7 days: 3.68 to 6.94 mg/kg
[6]; 2b 0.005 mg/kg i.p. 30 min before POX 0.42 mg/kg i.p.
  n/N (mice surviving 5 days after POX poisoning / total): 8/12
[6]; 2b 0.01 mg/kg i.p. 30 min before POX 0.42 mg/kg i.p.
  n/N (mice surviving 5 days after POX poisoning / total): 10 out of 12 and 10/12
[6]; 2b 0.01 mg/kg pre-treatment, p = 0.02
  relative risk of death (RRD) vs poisoned group treated only with atropine: significantly decreased
[6]; 2b 0.05 mg/kg i.p. 30 min before POX 0.42 mg/kg i.p.
  n/N (mice surviving 5 days after POX poisoning / total): 7/12
[6]; 2b 0.1 mg/kg i.p. 30 min before POX 0.42 mg/kg i.p.
  n/N (mice surviving 5 days after POX poisoning / total): 5/12
[6]; 2b 0.5 mg/kg i.p. 30 min before POX 0.42 mg/kg i.p.
  n/N (mice surviving 5 days after POX poisoning / total): 4/12
[6]; 2b 1 mg/kg i.p. 30 min before POX 0.42 mg/kg i.p.
  n/N (mice surviving 5 days after POX poisoning / total): 4/12
[6]; 2b doses above 0.01 mg/kg
  relative risk of death (RRD): did not result in a reduction
[7]
  mean fall time (rotarod): 124 ± 20 s
[8]
  distance travelled (open field) vs control group: no significant differences
  number of rearings or head dips (open field): neither of the tested compounds significantly influenced
